Laboratory results taken from patent publication US8486958B2, “Crystalline forms of a 3-carboxypropyl-aminotetralin compound” (priority 2008, dated 2013).

Key:
[1] = Dynamic moisture sorption assessment; assay type: physicochemical; conditions: for deliquescence: up to about 90% relative humidity at room temperature
Description: Dynamic moisture sorption (DMS) assessment was performed at 25° C. using a VTI atmospheric microbalance, SGA-100 system (VTI Corp., Hialeah, Fla. 33016). […] A typical DMS analysis consisted of three or four scans: ambient to 2% relative humidity (RH), 2% RH to 90% RH, 90% RH to 5% RH at a scan rate of 5% RH/step, and, in some case a second adsorption 2% RH to 90% RH. The mass was measured every two minutes and the RH was changed to the next value (±5% RH) when the mass of the sample was stable to within 0.02% for 5 consecutive points.

[2] = Thermogravimetric analysis (TGA); assay type: physicochemical; conditions: temperatures below the melting point
Description: Thermogravimetric analysis (TGA) was performed using a TA Instruments Model Q-500 module. Data were collected and analyzed using TA Instruments Thermal Advantage for Q Series™ software. A sample weighing about 1-5 mg was placed in an aluminum pan on a platinum cradle and scanned from ambient temperature to 300° C. with a linear heating rate of 10° C./min. The balance and furnace chambers were purged with nitrogen during use. Representative TGA traces for samples of crystalline Form I and of a crystalline hydrochloride salt of compound 1 are also shown in FIGS. 2 and 7, respectively.

[3] = test system: motility of the gastrointestinal (GI) tract; assay: Gastrointestinal motility in animal models; assay type: in vivo
[4] = target: T1, human mu opioid receptor (Homo sapiens, UniProt P35372); assay: Radioligand binding assay, [3H]-Diprenorphine displacement, CHO-K1 membranes
T1 construct: expressed in transfected cells; host or cells: CHO-K1

[5] = target: T1, human mu opioid receptor; assay: Human mu GTP-Eu nucleotide exchange assay (agonist mediated activation); assay type: biochemical; conditions: relative to DAMGO as full agonist; read-out: intrinsic activity (IA), bound GTP-Eu relative to DAMGO (IA=100)
[6] = test system: loperamide-induced delayed gastric emptying; assay: Rat gastric emptying assay (reversal of loperamide-induced delay); assay type: in vivo; conditions: administered orally, loperamide 1 mg/kg s.c.
Description: Assay 3: Rat Model of In Vivo Efficacy In this assay the efficacy of test compounds was evaluated in a model of gastrointestinal transit, which evaluates peripheral activity. This study was approved by the Institutional Animal Care and Use Committee at […]. and conformed to the Guide for the Care and Use of Laboratory Animals published by the National Academy of Sciences (©1996). Test compounds were evaluated in the rat gastric emptying assay to determine their ability to reverse loperamide-induced delayed gastric emptying. Rats were fasted up overnight prior to administration of test compounds or vehicle by intravenous, subcutaneous, intramuscular or oral routes of administration at doses ranging from 0.001 to about 30 milligrams/kilogram (mg/kg). The administration of test compound was followed by subcutaneous administration of loperamide at a dose of 1 mg/kg or vehicle. […] Gastric weight was then determined after removal of the ligatures. Data was analyzed using the GraphPad Prism Software package (GraphPad Software, Inc., San Diego, Calif.). Percent reversal curves were constructed by non-linear regression analysis using the sigmoidal dose response (variable slope) model and best-fit ID50 values were calculated. […]

T1 sequence (P35372 whole entry): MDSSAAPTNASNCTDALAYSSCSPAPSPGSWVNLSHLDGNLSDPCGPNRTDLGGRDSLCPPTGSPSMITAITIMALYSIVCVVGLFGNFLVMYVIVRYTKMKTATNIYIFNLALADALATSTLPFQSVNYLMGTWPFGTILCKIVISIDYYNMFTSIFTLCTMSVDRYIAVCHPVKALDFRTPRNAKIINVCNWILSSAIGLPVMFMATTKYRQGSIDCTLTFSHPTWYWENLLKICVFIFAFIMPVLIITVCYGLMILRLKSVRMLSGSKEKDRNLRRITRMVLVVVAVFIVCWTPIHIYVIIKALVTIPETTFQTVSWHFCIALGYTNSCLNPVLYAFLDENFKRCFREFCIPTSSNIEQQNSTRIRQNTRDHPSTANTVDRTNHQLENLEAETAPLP

CCC1(CC)c2cc(C(N)=O)ccc2C[C@H](OC)[C@H]1NCC[C@H](CC1CCCCC1)C(=O)O [crystalline compound 1, (S)-4-((2S,3S)-7-carbamoyl-1,1-diethyl-3-methoxy-1,2,3,4-tetrahydronaphthalen-2-ylamino)-2-cyclohexylmethyl-butyric acid]
weight gain (moisture sorption) ([1]; 2% to 90% relative humidity, room temperature): less than 2.5% | deliquescence [1]: neither crystalline compound 1 nor the crystalline hydrochloride salt of compound 1 is deliquescent

CCC1(CC)c2cc(C(N)=O)ccc2C[C@H](OC)[C@H]1NCC[C@H](CC1CCCCC1)C(=O)O.Cl [(S)-4-((2S,3S)-7-Carbamoyl-1,1-diethyl-3-methoxy-1,2,3,4-tetrahydronaphthalen-2-ylamino)-2-cyclohexylmethyl-butyric acid hydrochloride]
appearance and flowability on exposure to humidity ([1]; about 2% to about 90% relative humidity at room temperature): retained their appearance and flowability | deliquescence [1]: neither crystalline compound 1 nor the crystalline hydrochloride salt of compound 1 is deliquescent

CCC1(CC)c2cc(C(N)=O)ccc2C[C@H](OC)[C@H]1NCC[C@H](CC1CCCCC1)C(=O)O [Form I, (S)-4-((2S,3S)-7-carbamoyl-1,1-diethyl-3-methoxy-1,2,3,4-tetrahydronaphthalen-2-ylamino)-2-cyclohexylmethyl-butyric acid]
TGA weight loss [2]: no significant weight loss | weight gain (moisture sorption) ([1]; 40% to 75% relative humidity): less than 1%

CCC1(CC)c2cc(C(N)=O)ccc2C[C@H](OC)[C@H]1NCC[C@H](CC1CCCCC1)C(=O)O [Compound 1, (S)-4-((2S,3S)-7-carbamoyl-1,1-diethyl-3-methoxy-1,2,3,4-tetrahydronaphthalen-2-ylamino)-2-cyclohexylmethyl-butyric acid]
effect on motility of the gastrointestinal tract [3]: increase motility of the gastrointestinal (GI) tract | Ki [4]: 0.398 nM | Emax [5]: -8% | ID50, dose required for 50% reversal of the effects of loperamide [6]: 0.09 mg/kg
